This is an account of results in PMC7555119, “Characterization of Novel Synthetic Polyphenols: Validation of Antioxidant and Vasculoprotective Activities” (Antioxidants, 2020).

≈ marks a conversion by molar mass, not a printed value. Bounds are passed on as bounds.

Test system in one series: not listed separately
Kind of series: Aqueous thermodynamic solubility in H2O (UV). The format is physicochemical. The following applies: water, thermodynamic from solid. An excerpt: 4) Log P and aqueous solubility of selected compounds.
Table S2. Theoretical Log P values and aqueous thermodynamic solubility measured for
Comp `Chemical Structure MW LogP Calc Aqueous Solubility a
a Thermodynamic solubility in H 2O (UV). […]
As to `O=C(Nc1ccc(O)cc1)Nc1ccc(O)cc1` [Compound 15, N,N′-bis(4-Hydroxyphenyl)urea], the concentration in solution (solubility) was 62.6 ± 0.1 µg/mL (≈ 256 µM).

Test system in another series: not given
Assay: not given
Settings: not given
With `O=C(Cc1cc(O)ccc1O)Nc1ccc(O)cc1O` [Compound 1, N-(2,4-Dihydroxyphenyl)-2-(2′,5′-dihydroxyphenyl)acetamide], the melting point (commonly the temperature, or range, at which the solid turns liquid) fell in the range of 178 to 180 °C.

Turning to `O=C(Cc1cc(O)ccc1O)Nc1cc(O)ccc1O` [Compound 4, N-(2,5-Dihydroxyphenyl)-2-(2′,5′-dihydroxyphenyl)acetamide], the melting point was 204 to 207 °C (dec.).

`O=C(Cc1ccc(O)cc1O)Nc1ccc(O)cc1O` [Compound 5, N-(2,4-Dihydroxyphenyl)-2-(2′,4′-dihydroxyphenyl)acetamide]: the melting point lay within 75 to 78 °C.

In the case of `O=C(Cc1cc(O)ccc1O)Nc1ccc(O)c(O)c1` [Compound 6, 2-(2′,5′-Dihydroxyphenyl)-N-(3,4-dihydroxyphenyl)acetamide], the melting point was 180 °C (dec.).

With `O=C(Cc1cc(O)ccc1O)N(c1ccc(O)cc1)c1ccc(O)cc1` [Compound 9, 2-(2′,5′-Dihydroxyphenyl)-N,N-bis(4-hydroxyphenyl)acetamide], the melting point lay in the range of 124 to 126 °C.

With `O=C(Cc1cc(O)ccc1O)N(Cc1cc(O)ccc1O)c1ccc(O)cc1` [Compound 10, N-(2′,5′-Dihydroxybenzyl)-2-(2″,5″-dihydroxyphenyl)-N-(4-hydroxyphenyl) acetamide], the melting point lay in the range of 114 to 116 °C.

Consider `O=C(Nc1ccc(O)cc1O)Nc1cc(O)ccc1O` [Compound 11, N-(2,4-Dihydroxyphenyl)-N′-(2′,5′-dihydroxyphenyl)urea], for which the melting point was > 155 °C (dec.).

Take `O=C(Nc1ccc(O)cc1)Nc1cc(O)ccc1O` [Compound 12, N-(2,5-Dihydroxyphenyl)-N′-(4′-hydroxyphenyl)urea]: the melting point is 180 to 182 °C.

On to `O=C(Nc1ccc(O)cc1)Nc1ccc(O)cc1` [Compound 15, N,N′-bis(4-Hydroxyphenyl)urea], for which the melting point was 245 °C.

Test system in a further series: not listed separately
Kind of series: Oxygen radical absorbance capacity (ORAC) assay.
Settings: not given
How it is done:
The ORAC assay was performed following Ou et al., as modified by Garcés-Rimón et al.. All samples and reagents were dissolved in phosphate buffer (75 mM; pH 7.4). […] The fluorescence was recorded at 40 °C every 55 s for 95 min using a fluorimeter (SpectraMax M2; Molecular Devices, California, USA), with excitation and emission wavelengths of 480 and 520 nm, respectively. All samples were tested in triplicate. ORAC values were expressed as μmol of Trolox equivalents (TE)/μmol of pure compound.
For the compound `O=C(Cc1cc(O)ccc1O)Nc1ccc(O)cc1O` [Compound 1, N-(2,4-Dihydroxyphenyl)-2-(2′,5′-dihydroxyphenyl)acetamide], the ORAC is on record as 11.0 ± 0.4 µmol of trolox/µmol of pure compound.

In the case of `O=C(Cc1cc(O)ccc1O)Nc1cc(O)ccc1O` [Compound 4, N-(2,5-Dihydroxyphenyl)-2-(2′,5′-dihydroxyphenyl)acetamide], the ORAC is given as 14.4 ± 0.2 µmol of trolox/µmol of pure compound.

`O=C(Cc1ccc(O)cc1O)Nc1ccc(O)cc1O` [Compound 5, N-(2,4-Dihydroxyphenyl)-2-(2′,4′-dihydroxyphenyl)acetamide]: the ORAC is recorded as 5.2 ± 0.4 µmol of trolox/µmol of pure compound.

For the compound `O=C(Cc1cc(O)ccc1O)Nc1ccc(O)c(O)c1` [Compound 6, 2-(2′,5′-Dihydroxyphenyl)-N-(3,4-dihydroxyphenyl)acetamide], the ORAC is given as 9.4 ± 0.4 µmol of trolox/µmol of pure compound.

Consider `O=C(Cc1cc(O)ccc1O)N(c1ccc(O)cc1)c1ccc(O)cc1` [Compound 9, 2-(2′,5′-Dihydroxyphenyl)-N,N-bis(4-hydroxyphenyl)acetamide], for which the ORAC was 29.5 ± 0.5 µmol of trolox/µmol of pure compound.

On to `O=C(Cc1cc(O)ccc1O)N(Cc1cc(O)ccc1O)c1ccc(O)cc1` [Compound 10, N-(2′,5′-Dihydroxybenzyl)-2-(2″,5″-dihydroxyphenyl)-N-(4-hydroxyphenyl) acetamide], for which the ORAC was 27.6 ± 0.5 µmol of trolox/µmol of pure compound.

As for `O=C(Nc1ccc(O)cc1O)Nc1cc(O)ccc1O` [Compound 11, N-(2,4-Dihydroxyphenyl)-N′-(2′,5′-dihydroxyphenyl)urea], the ORAC is reported as 6.6 ± 0.1 µmol of trolox/µmol of pure compound.

Take `O=C(Nc1ccc(O)cc1)Nc1cc(O)ccc1O` [Compound 12, N-(2,5-Dihydroxyphenyl)-N′-(4′-hydroxyphenyl)urea]: the ORAC is given as 12.5 ± 0.7 µmol of trolox/µmol of pure compound.

As to `O=C(Nc1ccc(O)cc1)Nc1ccc(O)cc1` [Compound 15, N,N′-bis(4-Hydroxyphenyl)urea], the ORAC is given as 8.9 ± 0.4 µmol of trolox/µmol of pure compound.

The same series, now with this note: TE: Trolox Equivalents.
For `O=C(Cc1cc(O)ccc1O)N(c1ccc(O)cc1)c1ccc(O)cc1` [Compound 9, 2-(2′,5′-Dihydroxyphenyl)-N,N-bis(4-hydroxyphenyl)acetamide], the “ORAC” value is “above 25 TE”.

Turning to `O=C(Cc1cc(O)ccc1O)N(Cc1cc(O)ccc1O)c1ccc(O)cc1` [Compound 10, N-(2′,5′-Dihydroxybenzyl)-2-(2″,5″-dihydroxyphenyl)-N-(4-hydroxyphenyl) acetamide], the “ORAC” value is “above 25 TE”.

Test system in the next series: not listed separately
Kind of series: Stability in aqueous media (H2O/acetonitrile 80:20, HPLC-MS). The following applies: H2O/acetonitrile (80:20%), room temperature, checked for 60 days. In kind it is physicochemical. An excerpt:
The solutions were checked by HPLC-MS at regular intervals of time for 60 days. […] The rest of the compounds suffered progressive degradation, with complete disappearance from the solution after 10 or 20 days. The most unstable polyphenol derivatives were 4 and 10 (Figure S1), having both two p-dihydroxy substitutions in the phenyl rings, which points to the rapid and easy oxidation to the p-hydroquinone. From the four compounds with three phenyl rings, only one was stable in aqueous solution (17).
Consider `O=C(Cc1cc(O)ccc1O)Nc1cc(O)ccc1O` [Compound 4, N-(2,5-Dihydroxyphenyl)-2-(2′,5′-dihydroxyphenyl)acetamide], for which the “stability in aqueous media” value is “most unstable”.

For `O=C(Cc1cc(O)ccc1O)N(Cc1cc(O)ccc1O)c1ccc(O)cc1` [Compound 10, N-(2′,5′-Dihydroxybenzyl)-2-(2″,5″-dihydroxyphenyl)-N-(4-hydroxyphenyl) acetamide], the “stability in aqueous media” value was “most unstable”.

Consider `O=C(Nc1ccc(O)cc1)Nc1ccc(O)cc1` [Compound 15, N,N′-bis(4-Hydroxyphenyl)urea], for which the “stability in aqueous media” value is on record as “sufficiently stable”.

Still in this series, the particulars now being: remaining pure compound (HPLC) after two months at room temperature in aqueous solution (+20% acetonitrile).
Take `O=C(Cc1cc(O)ccc1O)Nc1ccc(O)cc1O` [Compound 1, N-(2,4-Dihydroxyphenyl)-2-(2′,5′-dihydroxyphenyl)acetamide]: the “Aqueous Stability (%)” value is on record as 2%.

On to `O=C(Cc1cc(O)ccc1O)Nc1cc(O)ccc1O` [Compound 4, N-(2,5-Dihydroxyphenyl)-2-(2′,5′-dihydroxyphenyl)acetamide], for which the “Aqueous Stability (%)” value came out at 0%.

Turning to `O=C(Cc1cc(O)ccc1O)Nc1ccc(O)c(O)c1` [Compound 6, 2-(2′,5′-Dihydroxyphenyl)-N-(3,4-dihydroxyphenyl)acetamide], the “Aqueous Stability (%)” value is 0%.

Take `O=C(Cc1cc(O)ccc1O)N(c1ccc(O)cc1)c1ccc(O)cc1` [Compound 9, 2-(2′,5′-Dihydroxyphenyl)-N,N-bis(4-hydroxyphenyl)acetamide]: the “Aqueous Stability (%)” value amounted to 0%.

As for `O=C(Cc1cc(O)ccc1O)N(Cc1cc(O)ccc1O)c1ccc(O)cc1` [Compound 10, N-(2′,5′-Dihydroxybenzyl)-2-(2″,5″-dihydroxyphenyl)-N-(4-hydroxyphenyl) acetamide], the “Aqueous Stability (%)” value is 0%.

Consider `O=C(Nc1ccc(O)cc1)Nc1cc(O)ccc1O` [Compound 12, N-(2,5-Dihydroxyphenyl)-N′-(4′-hydroxyphenyl)urea], for which the “Aqueous Stability (%)” value stood at 0%.

Turning to `O=C(Nc1ccc(O)cc1)Nc1ccc(O)cc1` [Compound 15, N,N′-bis(4-Hydroxyphenyl)urea], the “Aqueous Stability (%)” value is on record as 90%.

A further series has as its system Saccharomyces cerevisiae strain BY4741. Kind of series: In vivo antioxidant capacity in stressed yeasts (growth recovery, survivors). The format is cell-based. The following applies: H2O2-stressed BY4741, doses 2, 20 and 40 μg. How it is done:
Saccharomyces cerevisiae haploid strain BY4741 was used as described previously. Briefly, 20 μL of glycerol stock culture was revived in 5ml of YPD medium (1% yeast extract, 2% bacteriological peptone and 2% dextrose) at 28 °C, with shaking (210 rpm). Fifty microliters of 20-h-old culture was used to inoculate fresh 5ml YPD (control medium) or 5 mL of oxidative stress medium (YPOxD: YPOxD; 1% yeast extract, 2% bacteriological peptone, 1% dextrose and 3% H2O2). Stress (and control) was conducted during 16h at 28 °C, with shaking (220 rpm).
Growth rate was determined from growth kinetics using the BioScreen C plate-reader system (OY Growth Curves Ab Ldt., Helsinki, Finland). Stressed yeast cultures (16 h old) were used to inoculate 200 µl of fresh media to an initial OD595 of 0.05–0.07, being distributed in 100-well honeycomb plates (Oy Growth Curves) in triplicate per each condition (each different dose of each compound). Plates were then incubated at 28 °C for 72h, with shaking (High force), taking OD measurement each 15 min in the Bioscreen C. Maximum growth rate (μmax) and biomass production (carrying capacity) were determined in R using ‘Growthcurver’ package version 0.3 [24]. Growth curves were constructed in EXCEL, represented as mean ± SEM (standard error of mean). […] In addition, to measure survival after oxidative stress and antioxidant effectiveness of each compound, yeast cells from each challenge were serially diluted in 96-well plates, and each dilution was spotted (with a 8 × 6 stainless steel replica platter from SIGMA) in triplicate to determine viable colonies after 24–48 h at 28 °C. Survivors (mean ± SEM) were compared between treatments with one-way ANOVA, Fisher’s LSD test, with alpha at 0.05 for significance.
On to `O=C(Nc1ccc(O)cc1)Nc1ccc(O)cc1` [Compound 15, N,N′-bis(4-Hydroxyphenyl)urea], for which the “growth rate (r) recovery of stressed yeast” value was “dose-related antioxidant effect”.

The same series, now with this note: H2O2-stressed BY4741, each dose tested.
`O=C(Nc1ccc(O)cc1)Nc1ccc(O)cc1` [Compound 15, N,N′-bis(4-Hydroxyphenyl)urea]: the “carrying capacity (k) recovery of stressed yeast” value was “able to recover the carrying capacity of yeast cells similarly as control antioxidants”.

Still in this series, the particulars now being: low 2 μg dose.
Take `O=C(Nc1ccc(O)cc1)Nc1ccc(O)cc1` [Compound 15, N,N′-bis(4-Hydroxyphenyl)urea]: the “carrying capacity (k) recovery of stressed yeast, 2 μg dose” value was “slightly better than the other two polyphenols and resveratrol”.

Test system in the next series: not listed separately
Nature of the series: ABTS radical cation scavenging assay.
Settings: not given
How it is done: The 2,2′-azino-bis (3-ethylbenzothiazoline-6-sulfonic acid) diammonium salt (ABTS) assay was performed according to Re et al. and modified by Oki et al. for its use in microplates. Samples were diluted in methanol. An ABTS^•+ stock solution was prepared by adding 44 μL of potassium persulfate (140 mmol/L) to a 2.5 mL ABTS^•+ aqueous solution (7 mmol/L). The working solution of the radical ABTS^+ was prepared by diluting the stock solution 1:75 (v/v) in a sodium phosphate buffer (5 mmol/L, pH 7.4) to obtain an absorbance value of 0.7±0.02 at 734 nm. Samples (30 μL) were added to 270 μL of the working solution of ABTS^•+ in a microplate. Absorbance was measured at 734 nm and 30 °C for 20 min, every 5 min in a Synergy HT plate spectrophotometer (Biotek Instruments, Winoosky, VT, USA). A calibration curve was made with Trolox (20–250 μM). All samples were analyzed in triplicate. Results were expressed in μmol TE/μmol of pure compound, as for the ORAC assays.
Regarding `O=C(Nc1ccc(O)cc1)Nc1ccc(O)cc1` [Compound 15, N,N′-bis(4-Hydroxyphenyl)urea], the ABTS is given as 1.17 ± 0.01 µmol of trolox/µmol of pure compound.
